Measured values published in patent US12344610B2, “APOL1 inhibitors and methods of use” (Maze Therapeutics, Inc., priority 2022, dated 2025).

How the values were obtained:
[1] = system: HEK293 cells overexpressing APOL1 G2; experiment: APOL1 G2 HEK293 cell rescue assay (reversal of cell death caused by overexpression of APOL1); assay type: cell-based; settings: geometric mean of at least 2 assay runs, † = single assay run
Method: Unless otherwise specified, EC50 values are reported as the geometric mean of at least 2 assay runs on separate days. Each run represents the average of a technical replicate, where each compound was assayed twice in the same plate. A superscript t symbol indicates a value from the average of a technical replicate from a single assay run, where each compound was assayed twice in the same plate. Compounds in Table 40 are referred to by the corresponding Compound Number in Table 1, which is also referred to in the synthetic examples. When one or more of the numbered compounds are identified by stereochemistry (for example, (R)- or (S)-), the specific stereoisomer for which data is provided in Table 40 may be identified by the elution order of such compound as described in the synthetic examples. Absolute stereochemistry of such compounds may be identified by methods known in the art. For Table 40 below, n/a represents “not available”.
Rescue EC50 values reported in Table 40 below represent the half-maximal effective concentration for reversal of cell death caused by overexpression of APOL1.

[2] = system: HEK293 clonal cell line overexpressing APOL1 G1; experiment: APOL1 G1 HEK293 cell rescue assay (Example B3); assay type: cell-based; settings: geometric mean of at least 2 runs, † = single run, ¥ = concentration at 50% rescue estimated (no sigmoidal curve)
Method: Compounds were also assayed in a HEK293 clonal cell line overexpressing APOL1 G1 by a method similar to that shown in Example B2 above.
Unless otherwise specified, EC50 values are reported as the geometric mean of at least 2 assay runs on separate days. Each run represents the average of a technical replicate, where each compound was assayed twice in the same plate. A superscript † symbol indicates a value from the average of a technical replicate from a single assay run, where each compound was assayed twice in the same plate. A ¥ symbol represents compound concentration at 50% rescue estimated due to lack of sigmoidal curve preventing curve fitting. Compounds in Table 41 are referred to by the corresponding Compound Number in Table 1, which is also referred to in the synthetic examples. When one or more of the numbered compounds are identified by stereochemistry (for example, (R)- or (S)-), the specific stereoisomer for which data is provided in Table 41 may be identified by the elution order of such compound as described in the synthetic examples. Absolute stereochemistry of such compounds may be identified by methods known in the art. For Table 41 below, n/a represents “not available”.
Rescue EC50 values reported in Table 41 below represent the half-maximal effective concentration for reversal of cell death caused by overexpression of APOL1.

[3] = HEK293 clonal line overexpressing APOL1 G1
[4] = Homo sapiens, HEK293, HEK293 overexpressing APOL1 G2
[5] = Homo sapiens, HEK293, HEK293 clonal line overexpressing APOL1 G1

SMILES | EC50 ([1]; HEK293 overexpressing APOL1 G2) [nM] | EC50 [2, 3] [nM] | EC50 [1, 4] [nM] | EC50 [2, 5] [nM]
O=C1Nc2ccc(Cl)cc2C12CCN(CCOc1cnc(C(O)CO)nc1)CC2 (single isomer, unassigned) [Compound 378, 5-chloro-1′-[2-({2-[(1S or 1R)-1,2-dihydroxyethyl]pyrimidin-5-yl}oxy)ethyl]-1,2-dihydrospiro[indole-3,4′-piperidin]-2-one] | 388 | ~1000 |  | 
CC1(O)CC(n2ncc3cc(OCCN4CCC5(CC4)C(=O)Nc4ccc(C#N)cc45)cnc32)C1 (centres unmarked) [Compound 436, 1′-(2-{[1-(3-hydroxy-3-methylcyclobutyl)-1H-pyrazolo[3,4-b]pyridin-5-yl]oxy}ethyl)-2-oxo-1,2-dihydrospiro[indole-3,4′-piperidine]-5-carbonitrile] |  |  | 80.1 | 114
CS(=O)(=O)N1CCC(c2ccc(OCCN3CCC4(CC3)C(=O)Nc3ccc(Cl)cc34)cc2)CC1 [Compound 444, 5-chloro-1′-{2-[4-(1-methanesulfonylpiperidin-4-yl)phenoxy]ethyl}-1,2-dihydrospiro[indole-3,4′-piperidin]-2-one] |  |  | 22.4 | 72.3
CS(=O)(=O)C1(c2ncc(OCCN3CCC4(CC3)C(=O)Nc3c(Cl)cc(Cl)cc34)cn2)CC1 [Compound 400, 5,7-dichloro-1′-(2-{[2-(1-methanesulfonylcyclopropyl)pyrimidin-5-yl]oxy}ethyl)-1,2-dihydrospiro[indole-3,4′-piperidin]-2-one] |  |  | 224 | 678
C[C@]1(O)C[C@@H](N2C(=O)CCc3cc(OCCN4CCC5(CC4)C(=O)Nc4ccc(C#N)cc45)cc(C(F)(F)F)c32)C1 [Compound 354, 2-oxo-1′-[2-({2-oxo-1-[(cis)-3-hydroxy-3-methylcyclobutyl]-8-(trifluoromethyl)-1,2,3,4-tetrahydroquinolin-6-yl}oxy)ethyl]-1,2-dihydrospiro[indole-3,4′-piperidine]-5-carbonitrile] |  |  | 14.6 | 40.1
C[C@]1(O)C[C@@H](n2cnc3cc(OCCN4CCC5(CC4)C(=O)Nc4ccc(Cl)cc45)ccc32)C1 [Compound 351, 5-chloro-1′-[2-({1-[(cis)-3-hydroxy-3-methylcyclobutyl]-1H-1,3-benzodiazol-5-yl}oxy)ethyl]-1,2-dihydrospiro[indole-3,4′-piperidin]-2-one] |  |  | 166 | 299
C[C@]1(O)C[C@@H](N2C(=O)NCc3cc(OCCN4CCC5(CC4)C(=O)Nc4ccc(C#N)cc45)cc(C(F)(F)F)c32)C1 [Compound 457, 2-oxo-1′-[2-({2-oxo-1-[(cis)-3-hydroxy-3-methylcyclobutyl]-8-(trifluoromethyl)-1,2,3,4-tetrahydroquinazolin-6-yl}oxy)ethyl]-1,2-dihydrospiro[indole-3,4′-piperidine]-5-carbonitrile] |  |  | 278 | > 3300
CC(O)c1ncc(OCCN2CCC3(CC2)C(=O)Nc2ccc(C(F)F)cc23)cc1C(F)(F)F (centres unmarked) [Compound 296, 5-(difluoromethyl)-1′-(2-{[6-(1-hydroxyethyl)-5-(trifluoromethyl)pyridin-3-yl]oxy}ethyl)-1,2-dihydrospiro[indole-3,4′-piperidin]-2-one] |  |  | 77.3 | 159
C[C@]1(O)C[C@@H](n2cnc3nc(OCCN4CCC5(CC4)C(=O)Nc4ccc(Cl)cc45)cc(C(F)(F)F)c32)C1 [Compound 471, 5-chloro-1′-[2-({1-[(cis)-3-hydroxy-3-methylcyclobutyl]-7-(trifluoromethyl)-1H-imidazo[4,5-b]pyridin-5-yl}oxy)ethyl]-1,2-dihydrospiro[indole-3,4′-piperidin]-2-one] |  |  | > 3300 | > 3300
CCC1(O)CC(N2C(=O)CCc3cc(OCCN4CCC5(CC4)C(=O)Nc4ccc(Cl)cc45)cnc32)C1 (centres unmarked) [Compound 318] |  |  | 23.2 | 65.9
C[C@]1(O)C[C@@H](N2C(=O)CCc3cc(OCCN4CCC5(CC4)C(=O)Nc4ccc(Cl)cc45)cc(C(F)(F)F)c32)C1 [Compound 353, 5-chloro-1′-[2-({2-oxo-1-[(cis)-3-hydroxy-3-methylcyclobutyl]-8-(trifluoromethyl)-1,2,3,4-tetrahydroquinolin-6-yl}oxy)ethyl]-1,2-dihydrospiro[indole-3,4′-piperidin]-2-one] |  |  | 12.3 | 34.5
CC(O)c1ncc(OCCN2CCC3(CC2)C(=O)Nc2ccc(C#N)cc23)cc1C(F)(F)F (centres unmarked) [Compound 338, 1′-(2-{[6-(1-hydroxyethyl)-5-(trifluoromethyl)pyridin-3-yl]oxy}ethyl)-2-oxo-1,2-dihydrospiro[indole-3,4′-piperidine]-5-carbonitrile] |  |  | 99.4 | 213
O=C1Nc2ccc(Cl)cc2C12CCN(CCOc1cnc(C(O)CO)nc1)CC2 (single isomer, unassigned) [Compound 379, 5-chloro-1′-[2-({2-[(1R or 1S)-1,2-dihydroxyethyl]pyrimidin-5-yl}oxy)ethyl]-1,2-dihydrospiro[indole-3,4′-piperidin]-2-one] | 842 | > 10000 |  | 
CC(C)(O)CN1C(=O)CCc2cc(OCCN3CCC4(CC3)C(=O)Nc3ccc(Cl)cc34)cnc21 [Compound 452, 5-chloro-1′-(2-{[8-(2-hydroxy-2-methylpropyl)-7-oxo-5,6,7,8-tetrahydro-1,8-naphthyridin-3-yl]oxy}ethyl)-1,2-dihydrospiro[indole-3,4′-piperidin]-2-one] |  |  | 28.2 | 84.4
N#Cc1ccc2c(c1)C1(CCN(CCOc3cnc(CCO)nc3)CC1)C(=O)N2 [Compound 332, 1′-(2-{[2-(2-hydroxyethyl)pyrimidin-5-yl]oxy}ethyl)-2-oxo-1,2-dihydrospiro[indole-3,4′-piperidine]-5-carbonitrile] |  |  |  | ~10000
CC(COc1ccc(S(C)(=O)=O)cc1)N1CCC2(CC1)C(=O)N(C1CC(O)C1)c1ccc(Cl)cc12 (single isomer, unassigned) [Compound 206, 5-chloro-1′-[(2S) or (2R)-1-(4-methanesulfonylphenoxy)propan-2-yl]-1-[(cis) or (trans)-3-hydroxycyclobutyl]-1,2-dihydrospiro[indole-3,4′-piperidin]-2-one] | > 9540 | 4310 |  | 
[2H]C([2H])([2H])N1C(=O)C2(CCN(CCOc3cnc(C4(S(C)(=O)=O)COC4)nc3)CC2)c2cc(Cl)ccc21 [Compound 422, 5-chloro-1′-(2-{[2-(3-methanesulfonyloxetan-3-yl)pyrimidin-5-yl]oxy}ethyl)-1-(^2H3)methyl-1,2-dihydrospiro[indole-3,4′-piperidin]-2-one] |  |  | 63.5 | 165
C[C@]1(O)C[C@@H](n2c(=O)cc(C(F)F)c3cc(OCCN4CCC5(CC4)C(=O)Nc4ccc(Cl)cc45)cnc32)C1 [Compound 339, 5-chloro-1′-(2-{[5-(difluoromethyl)-7-oxo-8-[(cis)-3-hydroxy-3-methylcyclobutyl]-7,8-dihydro-1,8-naphthyridin-3-yl]oxy}ethyl)-1,2-dihydrospiro[indole-3,4′-piperidin]-2-one] |  |  | 36.6 | 
C[C@]1(O)C[C@@H](n2c(=O)cc(C(F)F)c3cc(OCCN4CCC5(CC4)C(=O)Nc4ccc(C(F)F)cc45)cnc32)C1 [Compound 340, 5-(difluoromethyl)-1′-(2-{[5-(difluoromethyl)-7-oxo-8-[(cis)-3-hydroxy-3-methylcyclobutyl]-7,8-dihydro-1,8-naphthyridin-3-yl]oxy}ethyl)-1,2-dihydrospiro[indole-3,4′-piperidin]-2-one] |  |  | 30.2 | 
